Experimental data reported in ChEMBL document CHEMBL4002584, “Synthesis and antibacterial activities of novel pleuromutilin derivatives with a substituted pyrimidine moiety” (2017).
In brackets after ≈: the same amount, converted by molar mass.

Columns and labels:
Format in all cases: functional
Escherichia coli [1] = assay: Antibacterial activity against Escherichia coli CMCC (B) 44102 at 160 ug/ml after 24 to 36 hrs by oxford cup assay; conditions: read-out: DIZ
Staphylococcus aureus [2] = assay: Antibacterial activity against […] Staphylococcus aureus ATCC 33591 at 160 ug/ml after 24 to 36 hrs by oxford cup assay; conditions: read-out: DIZ
Escherichia coli [3] = assay: Antibacterial activity against Escherichia coli CMCC (B) 44102 after 24 to 48 hrs by agar dilution method
Staphylococcus aureus [4] = assay: Antibacterial activity against […] Staphylococcus aureus ATCC 33591 after 24 to 48 hrs by agar dilution method
Staphylococcus aureus [5] = assay: Antibacterial activity against Staphylococcus aureus CMCC (B) 26003 at 160 ug/ml after 24 to 36 hrs by oxford cup assay; conditions: read-out: DIZ
Escherichia coli [6] = assay: Antibacterial activity against Escherichia coli CMCC (B) 44102 at 320 ug/ml after 24 to 36 hrs by oxford cup assay; conditions: read-out: DIZ
Bacillus subtilis [7] = assay: Antibacterial activity against Bacillus subtilis CMCC (B) 63501 after 24 to 48 hrs by agar dilution method
Staphylococcus aureus [8] = assay: Antibacterial activity against […] Staphylococcus aureus ATCC 29213 at 160 ug/ml after 24 to 36 hrs by oxford cup assay; conditions: read-out: DIZ
Staphylococcus aureus [9] = assay: Antibacterial activity against Staphylococcus aureus CMCC (B) 26003 after 24 to 48 hrs by agar dilution method
Staphylococcus aureus [10] = assay: Antibacterial activity against […] Staphylococcus aureus ATCC 29213 after 24 to 48 hrs by agar dilution method
Staphylococcus aureus [11] = assay: Antibacterial activity against […] Staphylococcus aureus ATCC 29213 at 320 ug/ml after 24 to 36 hrs by oxford cup assay; conditions: read-out: DIZ
Bacillus subtilis [12] = assay: Antibacterial activity against Bacillus subtilis CMCC (B) 63501 at 160 ug/ml after 24 to 36 hrs by oxford cup assay; conditions: read-out: DIZ
Staphylococcus aureus [13] = assay: Antibacterial activity against […] Staphylococcus aureus ATCC 33591 at 320 ug/ml after 24 to 36 hrs by oxford cup assay; conditions: read-out: DIZ
Staphylococcus aureus [14] = assay: Antibacterial activity against Staphylococcus aureus CMCC (B) 26003 at 320 ug/ml after 24 to 36 hrs by oxford cup assay; conditions: read-out: DIZ
Bacillus subtilis [15] = assay: Antibacterial activity against Bacillus subtilis CMCC (B) 63501 at 320 ug/ml after 24 to 36 hrs by oxford cup assay; conditions: read-out: DIZ
Staphylococcus aureus [16] = assay: Bactericidal activity against […] Staphylococcus aureus ATCC 29213 after 1 to 24 hrs by time-kill assay
Staphylococcus aureus [17] = assay: Bactericidal activity against Staphylococcus aureus CMCC (B) 26003 assessed as bacterial level at MIC after 1 to 24 hrs by time-kill assay
Staphylococcus aureus [18] = assay: Bactericidal activity against Staphylococcus aureus CMCC (B) 26003 at 6 times MIC after 4 hrs by time-kill assay relative to control
Staphylococcus aureus [19] = assay: Bactericidal activity against Staphylococcus aureus CMCC (B) 26003 after 1 to 24 hrs by time-kill assay
Staphylococcus aureus [20] = assay: Antibacterial activity against […] Staphylococcus aureus ATCC 29213 in iv dosed Balb/c mouse systemic infection model assessed as increase in mouse survival after 7 days

| SMILES | zone of inhibition at 160 µg/mL (Escherichia coli [1]) | zone of inhibition at 160 µg/mL (Staphylococcus aureus [2]) | MIC (Escherichia coli [3]) | MIC (Staphylococcus aureus [4]) | zone of inhibition at 160 µg/mL (Staphylococcus aureus [5]) | zone of inhibition at 320 µg/mL (Escherichia coli [6]) | MIC (Bacillus subtilis [7]) | zone of inhibition at 160 µg/mL (Staphylococcus aureus [8]) | MIC (Staphylococcus aureus [9]) | MIC (Staphylococcus aureus [10]) | zone of inhibition at 320 µg/mL (Staphylococcus aureus [11]) | zone of inhibition at 160 µg/mL (Bacillus subtilis [12]) | zone of inhibition at 320 µg/mL (Staphylococcus aureus [13]) | zone of inhibition at 320 µg/mL (Staphylococcus aureus [14]) | zone of inhibition at 320 µg/mL (Bacillus subtilis [15]) | further results |
| --- | --- | --- | --- | --- | --- | --- | --- | --- | --- | --- | --- | --- | --- | --- | --- | --- |
| C=C[C@]1(C)C[C@@H](OC(=O)CSc2nc(N)cc(NC(=O)CN3CCOCC3)n2)[C@]2(C)[C@H](C)CC[C@]3(CCC(=O)[C@H]32)[C@@H](C)[C@@H]1O | 9.82 mm | 17.9 mm | 4 µg/mL (≈ 6.35 µM) | 1 µg/mL (≈ 1.59 µM) | 24.7 mm | 11.9 mm | 2 µg/mL (≈ 3.18 µM) | 20.2 mm | 0.125 µg/mL (≈ 0.198 µM) | 0.25 µg/mL (≈ 0.397 µM) | 28 mm | 14.2 mm | 26.8 mm | 35.4 mm | 19.6 mm | – |
| C=C[C@]1(C)C[C@@H](OC(=O)CSc2nc(N)cc(NC(=O)CN(CC)CC)n2)[C@]2(C)[C@H](C)CC[C@]3(CCC(=O)[C@H]32)[C@@H](C)[C@@H]1O | 10.1 mm | 19.9 mm | 8 µg/mL (≈ 13 µM) | 0.25 µg/mL (≈ 0.406 µM) | 23.6 mm | 12 mm | 4 µg/mL (≈ 6.5 µM) | 16.4 mm | 0.125 µg/mL (≈ 0.203 µM) | 0.5 µg/mL (≈ 0.812 µM) | 22.3 mm | 13.4 mm | 25.8 mm | 34.2 mm | 15.7 mm | – |
| C=C[C@]1(C)C[C@@H](OC(=O)CSCCN(CC)CC)[C@]2(C)[C@H](C)CC[C@]3(CCC(=O)[C@H]32)[C@@H](C)[C@@H]1O [TIAMULIN] | 9.42 mm | 20.2 mm | 4 µg/mL (≈ 8.1 µM) | 0.125 µg/mL (≈ 0.253 µM) | 26.1 mm | 13.3 mm | 2 µg/mL (≈ 4.05 µM) | 22.9 mm | 0.0625 µg/mL (≈ 0.127 µM) | 0.25 µg/mL (≈ 0.506 µM) | 29.4 mm | 17.4 mm | 33.9 mm | 37.9 mm | 21.3 mm | Activity (Staphylococcus aureus [16]): Dose-dependent effect; Activity (Staphylococcus aureus [17]): 3 - 4 log10CFU/ml; fold change (FC) (Staphylococcus aureus [18]): >6; Activity (Staphylococcus aureus [19]): Dose-dependent effect; Activity (Staphylococcus aureus [20]): Dose-dependent effect; ED50 (Staphylococcus aureus [20]; ATCC 29213, iv, 168 h): 5.94 mg/kg |
| C=C[C@]1(C)C[C@@H](OC(=O)CSc2nc(N)cc(NC(=O)CN3CCCCC3)n2)[C@]2(C)[C@H](C)CC[C@]3(CCC(=O)[C@H]32)[C@@H](C)[C@@H]1O | 8.89 mm | 17.9 mm | 8 µg/mL (≈ 12.7 µM) | 0.5 µg/mL (≈ 0.796 µM) | 23 mm | 10.3 mm | 4 µg/mL (≈ 6.37 µM) | 18.2 mm | 0.25 µg/mL (≈ 0.398 µM) | 0.25 µg/mL (≈ 0.398 µM) | 24.9 mm | 15.2 mm | 22.8 mm | 30.1 mm | 19.6 mm | – |
| C=C[C@]1(C)C[C@@H](OC(=O)CSc2nc(N)cc(NC(=O)CN3CCC(O)CC3)n2)[C@]2(C)[C@H](C)CC[C@]3(CCC(=O)[C@H]32)[C@@H](C)[C@@H]1O | 8.54 mm | 23.5 mm | 4 µg/mL (≈ 6.21 µM) | 0.25 µg/mL (≈ 0.388 µM) | 21.1 mm | 11.4 mm | 2 µg/mL (≈ 3.11 µM) | 21 mm | 0.125 µg/mL (≈ 0.194 µM) | 0.25 µg/mL (≈ 0.388 µM) | 30.5 mm | 13.6 mm | 34.4 mm | 30.6 mm | 16.1 mm | – |
